The subject of assay [1] is Cacopsylla melanoneura. The assay can be described thus: Insecticidal activity against adult of Cacopsylla melanoneura in apple plant assessed as overwintered female mortality at 300 g/ha treated for 1 hr measured after 1 day relative to control. The assay is classed as functional.
Assay [2] deals with Cacopsylla melanoneura. The assay can be described thus: Insecticidal activity against adult of Cacopsylla melanoneura in apple plant assessed as reduction of progeny per female at 300 g/ha treated for 14 days measured after 7 days. The class given is functional, organism-based.
Assay [3] concerns Cacopsylla melanoneura. The assay can be described thus: Insecticidal activity against adult of Cacopsylla melanoneura in apple plant assessed as overwintered female mortality at 300 g/ha treated for 14 days measured after 3 days relative to control. The assay is classed as functional.
Assay [4] has as its system Cacopsylla melanoneura. The assay can be described thus: Insecticidal activity against adult of Cacopsylla melanoneura in apple plant assessed as overwintered female mortality at 300 g/ha treated for 14 days measured after 1 day relative to control. The class given is functional.
In assay [5] the test system is Cacopsylla melanoneura. The assay can be described thus: Insecticidal activity against adult of Cacopsylla melanoneura in apple plant assessed as reduction of progeny per female at 300 g/ha treated for 7 days measured after 7 days. The assay is classed as functional, organism-based.
For assay [6], the system named is Cacopsylla melanoneura. The assay can be described thus: Insecticidal activity against adult of Cacopsylla melanoneura in apple plant assessed as overwintered female mortality at 300 g/ha treated for 7 days measured after 3 days relative to control. The assay is classed as functional.
Assay [7] has as its system Cacopsylla melanoneura. The assay can be described thus: Insecticidal activity against adult of Cacopsylla melanoneura in apple plant assessed as overwintered female mortality at 300 g/ha treated for 7 days measured after 1 day relative to control. The assay is classed as functional.
Assay [8] deals with Cacopsylla melanoneura. The assay can be described thus: Insecticidal activity against adult of Cacopsylla melanoneura in apple plant assessed as reduction of progeny per female at 300 g/ha treated for 1 hr measured after 7 days. The class given is functional, organism-based.
Assay [9] deals with Cacopsylla melanoneura. The assay can be described thus: Insecticidal activity against adult of Cacopsylla melanoneura in apple plant assessed as overwintered female mortality at 300 g/ha treated for 1 hr measured after 3 days relative to control. The class given is functional.
The test system of assay [10] is Cacopsylla melanoneura. The assay can be described thus: Insecticidal activity against young stage of Cacopsylla melanoneura in apple plant assessed as mortality at 300 g/ha treated for 14 days measured after 7 days relative to control. The assay is classed as functional.
The test system of assay [11] is Cacopsylla melanoneura. The assay can be described thus: Insecticidal activity against young stage of Cacopsylla melanoneura in apple plant assessed as mortality at 300 g/ha treated for 7 days measured after 7 days relative to control. The class given is functional.
For assay [12], the system named is Cacopsylla melanoneura. The assay can be described thus: Insecticidal activity against young stage of Cacopsylla melanoneura in apple plant assessed as mortality at 300 g/ha treated for 1 hr measured after 7 days relative to control. The class given is functional.
The test system of assay [13] is Cacopsylla melanoneura. The assay can be described thus: Insecticidal activity against young stage of Cacopsylla melanoneura in apple plant assessed as mortality at 135 g/ha treated for 14 days measured after 7 days relative to control. The assay is classed as functional.
Assay [14] relates to Cacopsylla melanoneura. The assay can be described thus: Insecticidal activity against young stage of Cacopsylla melanoneura in apple plant assessed as mortality at 135 g/ha treated for 7 days measured after 7 days relative to control. The assay is classed as functional.
For assay [15], the system named is Cacopsylla melanoneura. The assay can be described thus: Insecticidal activity against adult of Cacopsylla melanoneura in apple plant assessed as overwintered female mortality at 135 g/ha treated for 1 hr measured after 3 days relative to control. The assay is classed as functional.
The subject of assay [16] is Cacopsylla melanoneura. The assay can be described thus: Insecticidal activity against adult of Cacopsylla melanoneura in apple plant assessed as overwintered female mortality at 135 g/ha treated for 1 hr measured after 1 day relative to control. The class given is functional.
Assay [17] has as its system Cacopsylla melanoneura. The assay can be described thus: Insecticidal activity against adult of Cacopsylla melanoneura in apple plant assessed as reduction of progeny per female at 135 g/ha treated for 14 days measured after 7 days. The class given is functional, organism-based.
Assay [18] has as its system Cacopsylla melanoneura. The assay can be described thus: Insecticidal activity against adult of Cacopsylla melanoneura in apple plant assessed as overwintered female mortality at 135 g/ha treated for 14 days measured after 3 days relative to control. The class given is functional.
Assay [19] deals with Cacopsylla melanoneura. The assay can be described thus: Insecticidal activity against adult of Cacopsylla melanoneura in apple plant assessed as overwintered female mortality at 135 g/ha treated for 14 days measured after 1 day relative to control. The assay is classed as functional.
Assay [20] relates to Cacopsylla melanoneura. The assay can be described thus: Insecticidal activity against adult of Cacopsylla melanoneura in apple plant assessed as reduction of progeny per female at 135 g/ha treated for 7 days measured after 7 days. The assay is classed as functional, organism-based.
Assay [21] concerns Cacopsylla melanoneura. The assay can be described thus: Insecticidal activity against adult of Cacopsylla melanoneura in apple plant assessed as overwintered female mortality at 135 g/ha treated for 7 days measured after 3 days relative to control. The class given is functional.
Assay [22] deals with Cacopsylla melanoneura. The assay can be described thus: Insecticidal activity against adult of Cacopsylla melanoneura in apple plant assessed as overwintered female mortality at 135 g/ha treated for 7 days measured after 1 day relative to control. The class given is functional.
The subject of assay [23] is Cacopsylla melanoneura. The assay can be described thus: Insecticidal activity against adult of Cacopsylla melanoneura in apple plant assessed as reduction of progeny per female at 135 g/ha treated for 1 hr measured after 7 days. The assay is classed as functional, organism-based.
The subject of assay [24] is Cacopsylla melanoneura. The assay can be described thus: Insecticidal activity against young stage of Cacopsylla melanoneura in apple plant assessed as mortality at 135 g/ha treated for 1 hr measured after 7 days relative to control. The assay is classed as functional.
For assay [25], the system named is Cacopsylla melanoneura. The assay can be described thus: Insecticidal activity against adult of Cacopsylla melanoneura in apple plant assessed as reduction of progeny per female at 187.5 g/ha treated for 14 days measured after 7 days. The assay is classed as functional, organism-based.
Assay [26] relates to Cacopsylla melanoneura. The assay can be described thus: Insecticidal activity against adult of Cacopsylla melanoneura in apple plant assessed as overwintered female mortality at 187.5 g/ha treated for 14 days measured after 3 days relative to control. The assay is classed as functional.
Assay [27] has as its system Cacopsylla melanoneura. The assay can be described thus: Insecticidal activity against adult of Cacopsylla melanoneura in apple plant assessed as overwintered female mortality at 187.5 g/ha treated for 14 days measured after 1 day relative to control. The class given is functional.
Assay [28] concerns Cacopsylla melanoneura. The assay can be described thus: Insecticidal activity against adult of Cacopsylla melanoneura in apple plant assessed as reduction of progeny per female at 187.5 g/ha treated for 7 days measured after 7 days. The class given is functional, organism-based.
For assay [29], the system named is Cacopsylla melanoneura. The assay can be described thus: Insecticidal activity against adult of Cacopsylla melanoneura in apple plant assessed as overwintered female mortality at 187.5 g/ha treated for 7 days measured after 3 days relative to control. The class given is functional.
Assay [30] relates to Cacopsylla melanoneura. The assay can be described thus: Insecticidal activity against adult of Cacopsylla melanoneura in apple plant assessed as overwintered female mortality at 187.5 g/ha treated for 7 days measured after 1 day relative to control. The assay is classed as functional.
For assay [31], the system named is Cacopsylla melanoneura. The assay can be described thus: Insecticidal activity against adult of Cacopsylla melanoneura in apple plant assessed as reduction of progeny per female at 187.5 g/ha treated for 1 hr measured after 7 days. The assay is classed as functional, organism-based.
Assay [32] deals with Cacopsylla melanoneura. The assay can be described thus: Insecticidal activity against adult of Cacopsylla melanoneura in apple plant assessed as overwintered female mortality at 187.5 g/ha treated for 1 hr measured after 3 days relative to control. The assay is classed as functional.
Assay [33] deals with Cacopsylla melanoneura. The assay can be described thus: Insecticidal activity against adult of Cacopsylla melanoneura in apple plant assessed as overwintered female mortality at 187.5 g/ha treated for 1 hr measured after 1 day relative to control. The assay is classed as functional.
Assay [34] relates to Cacopsylla melanoneura. The assay can be described thus: Insecticidal activity against young stage of Cacopsylla melanoneura in apple plant assessed as mortality at 187.5 g/ha treated for 14 days measured after 7 days relative to control. The assay is classed as functional.
In assay [35] the test system is Cacopsylla melanoneura. The assay can be described thus: Insecticidal activity against young stage of Cacopsylla melanoneura in apple plant assessed as mortality at 187.5 g/ha treated for 7 days measured after 7 days relative to control. The class given is functional.
For assay [36], the system named is Cacopsylla melanoneura. The assay can be described thus: Insecticidal activity against young stage of Cacopsylla melanoneura in apple plant assessed as mortality at 187.5 g/ha treated for 1 hr measured after 7 days relative to control. The assay is classed as functional.

The source of these data is ChEMBL document CHEMBL3044636, “Effectiveness of five insecticides for the control of adults and young stages of Cacopsylla melanoneura (Förster) (Hemiptera: Psyllidae) in a semi-field trial” (2010).

The source made the active and inactive calls. No cut-off for these calls is given here.

With `O=C(NC(=O)c1c(F)cccc1F)Nc1ccc(Cl)cc1` [DIFLUBENZURON], the Activity in the assay with Cacopsylla melanoneura [1] was found to be 20%; in the assay on Cacopsylla melanoneura [3], 63.3%; in the assay on Cacopsylla melanoneura [4] it was 46.7%; in the assay on Cacopsylla melanoneura [6], 56.7%; in the assay with Cacopsylla melanoneura [7], 30%; in the assay on Cacopsylla melanoneura [9] it was 56.7%. Also, the Activity in the assay on Cacopsylla melanoneura [10] was determined as 86.7%; in the assay on Cacopsylla melanoneura [11] it was 100%; in the assay on Cacopsylla melanoneura [12], 98.3%. Also, the result with Cacopsylla melanoneura [2], in the assay with Cacopsylla melanoneura [5] and with Cacopsylla melanoneura [8] was Active.
With `CCOc1ccc(C(C)(C)COCc2cccc(Oc3ccccc3)c2)cc1` [ETOFENPROX], the Activity in the assay with Cacopsylla melanoneura [13] was found to be 100%; in the assay with Cacopsylla melanoneura [14], 100%; in the assay on Cacopsylla melanoneura [15], 100%; in the assay with Cacopsylla melanoneura [16], 93.3%; in the assay on Cacopsylla melanoneura [18], 100%; in the assay on Cacopsylla melanoneura [19], 100%. For the same compound, the Activity was 93.3% in the assay with Cacopsylla melanoneura [21], 93.3% in the assay on Cacopsylla melanoneura [22] and 98.3% in the assay on Cacopsylla melanoneura [24]. In addition, the outcome with Cacopsylla melanoneura [17], with Cacopsylla melanoneura [20] and in the assay with Cacopsylla melanoneura [23] was Active.
In the case of `CCOC(=O)NCCOc1ccc(Oc2ccccc2)cc1` [PHENOXYCARB], the outcome with Cacopsylla melanoneura [25], in the assay on Cacopsylla melanoneura [28] and with Cacopsylla melanoneura [31] was Active. For the same compound, the Activity came to 53.3% in the assay with Cacopsylla melanoneura [26]; 23.3% in the assay with Cacopsylla melanoneura [27]; 60% in the assay on Cacopsylla melanoneura [29]; 40% with Cacopsylla melanoneura [30]; 16.7% in the assay with Cacopsylla melanoneura [32]; 3.3% with Cacopsylla melanoneura [33]. For the same compound, the Activity is 100% with Cacopsylla melanoneura [34], 91.7% in the assay on Cacopsylla melanoneura [35] and 93.3% with Cacopsylla melanoneura [36].
